From publication PMC2993763 (Journal of natural products, 2010)
Values joined by “and” are separate entries in the source; they are usually repeats but may differ in a detail not shown here. Identical values can stand only once.

Legend:
[1] = test system: HT-29 human colon cancer cell line; assay: Cytotoxicity assay; assay type: cell-based; conditions: HT-29 cells, three days incubation, SRB stain
[2] = cited from earlier work
[3] = test system: P-388 lymphocytic leukemia; conditions: administered both ip and iv; cited from earlier work

Row | Structure (SMILES) | ED50, cytotoxicity HT-29 [1] | activity in the in vivo hollow fiber assay [2] | activity in the P-388 lymphocytic leukemia test system in vivo [3]
1 | COC(=O)[C@H]1[C@@H](O)[C@@]2(O)c3c(OC)cc(O[C@@H]4O[C@@H]([C@H](O)CO)CO[C@@H]4OC)cc3O[C@@]2(c2ccc(OC)cc2)[C@@H]1c1ccccc1 [Compound 1, 2‴-epi-silvestrol] | 2.3 µM and 2.29 µM | – | –
2 | COC(=O)[C@H]1[C@@H](O)[C@@]2(O)c3c(OC)cc(O[C@@H]4O[C@@H]([C@@H](O)CO)CO[C@@H]4OC)cc3O[C@@]2(c2ccc(OC)cc2)[C@@H]1c1ccccc1 [Compound 2, 2‴,5‴-diepi-silvestrol] | 1.1 µM and 1.07 µM | – | –
3 | COC(=O)[C@H]1[C@@H](O)[C@@]2(O)c3c(OC)cc(O[C@@H]4O[C@@H]([C@H](O)CO)CO[C@H]4OC)cc3O[C@@]2(c2ccc(OC)cc2)[C@@H]1c1ccccc1 [Compound 7, silvestrol] | 0.0007 µM | active | showed activity
4 | COC(=O)[C@H]1[C@@H](O)[C@@]2(O)c3c(OC)cc(O[C@@H]4O[C@@H]([C@@H](O)CO)CO[C@H]4OC)cc3O[C@@]2(c2ccc(OC)cc2)[C@@H]1c1ccccc1 [Compound 8, episilvestrol (5‴-epi-silvestrol)] | 0.001 µM | – | –
